Consider eight compounds from US9233989B2, “Sila analogs of oxazolidinone derivatives and synthesis thereof” (Council of Scientific & Industrial Research, priority 2011, dated 2016).

Each structure is given as a SMILES string. Converted amounts (≈) assume the structure as drawn. Where two headings read alike, the source gives them in different places.

The subject of assay [1] is E.faecium ATCC 3567. Description: MIC by microbroth dilution method. In kind it is cell-based. For orientation: In broth dilution the organism is exposed to a series of concentrations in liquid medium.
In assay [2] the test system is MRSA ATCC BAA 39. The assay is described as follows: MIC by microbroth dilution method. The format is cell-based, S. aureus.
Assay [3] deals with S.aureus ATCC 13709 Smith. The assay is described as follows: MIC by microbroth dilution method. The format is cell-based.
For assay [4], the system named is E.faecalis ATCC 19433. The assay is described as follows: MIC by microbroth dilution method. The format is cell-based.
In assay [5] the test system is Mycobacterium tuberculosis H37Rv. Description: Anti-TB activity, colorimetric resazurin microtiter assay. The following applies: read-out: MIC, Minimum Inhibitory Concentration (90%). In kind it is cell-based.
The test system of assay [6] is MRSA 252 BAA 1720. The assay is described as follows: MIC by microbroth dilution method. In kind it is cell-based, S. aureus.
The test system of assay [7] is E.faecalis ATCC 29212. Description: MIC by microbroth dilution method. The format is cell-based.
The test system of assay [8] is E.faecium 134 VRE. The assay is described as follows: MIC by microbroth dilution method. The format is cell-based.
Assay [9] deals with E.faecalis SP 346 VRE. The assay is described as follows: MIC by microbroth dilution method. In kind it is cell-based.
In assay [10] the test system is MRSA 0-2657. The assay is described as follows: MIC by microbroth dilution method. The format is cell-based, S. aureus.
For assay [11], the system named is S.aureus ATCC 29213. Description: MIC by microbroth dilution method. The format is cell-based.
In assay [12] the test system is S.aureus 13709 LNZ mutant. The format is cell-based.
The test system of assay [13] is MRSE ATCC 35983. Description: MIC by microbroth dilution method. The format is cell-based, S. epidermidis.
Assay [14] relates to S.aureus ATCC Newman 25904. The assay is described as follows: MIC by microbroth dilution method. The format is cell-based.
In assay [15] the test system is S.aureus ATCC 700699 Mu50. Description: MIC by microbroth dilution method. The format is cell-based.
Assay [16] deals with E.faecium ATCC 35667. The assay is described as follows: MIC by microbroth dilution method. The format is cell-based.
Assay [17] has as its system E.faecalis ATCC 51299(VRE&HLAR). The assay is described as follows: MIC by microbroth dilution method. In kind it is cell-based.
Assay [18] relates to E.coli 7632. The assay is described as follows: MIC by microbroth dilution method. In kind it is cell-based.
For assay [19], the system named is E.faecium 06076 VRE. Description: MIC by microbroth dilution method. In kind it is cell-based.
Assay [20] deals with S.aureus2 (PVL + ve). In kind it is cell-based, S. aureus.
The subject of assay [21] is E.faecium ATCC 19434. Description: MIC by microbroth dilution method. The format is cell-based.
The test system of assay [22] is E.faecium ATCC 49224. Description: MIC by microbroth dilution method. The format is cell-based.
For assay [23], the system named is S.aureus DB00026. The assay is described as follows: MIC by microbroth dilution method. The format is cell-based.
Assay [24] concerns MRSA ATCC 43300. The assay is described as follows: MIC by microbroth dilution method. In kind it is cell-based, S. aureus.
For assay [25], the system named is MRSA DB 00026. The assay is described as follows: MIC by microbroth dilution method. The format is cell-based, S. aureus.
Assay [26] relates to S.epidermidis ATCC 14990. The assay is described as follows: MIC by microbroth dilution method. In kind it is cell-based.
Assay [27] has as its system MRSE ATCC 35984. Description: MIC by microbroth dilution method. In kind it is cell-based, S. epidermidis.
For assay [28], the system named is E.faecium 6A VRE. Description: MIC by microbroth dilution method. In kind it is cell-based.
Assay [29] concerns S.epidermis St 358. Description: MIC by microbroth dilution method. The format is cell-based, S. epidermidis.
Assay [30] concerns MRSA 562. The assay is described as follows: MIC by microbroth dilution method. In kind it is cell-based, S. aureus.
The test system of assay [31] is S.aureus ATCC 49775 PVL + ve. The format is cell-based.
Assay [32] relates to S.epidermidis ATCC 12228. The assay is described as follows: MIC by microbroth dilution method. The format is cell-based.
Where [33] appears, read: Mycobacterium tuberculosis, H37RV.

Take `COC(=O)NC[C@H]1CN(c2ccc(N3CC[Si](C)(C)CC3)c(F)c2)C(=O)O1` [NDS-10061, (S)-methyl((3-(4-(4,4-dimethyl-1,4-azasilinan-1-yl)-3-fluorophenyl)-2-oxooxazolidin-5-yl)methyl)carbamate]: the MIC in assay [1] worked out at 32 µg/mL (≈ 80.9 µM); in [2] it was 16 µg/mL (≈ 40.5 µM); in assay [3], 8 µg/mL (≈ 20.2 µM); in assay [4], 16 µg/mL (≈ 40.5 µM); in assay [5] (setting [33]), 25 µg/mL (≈ 63.2 µM); in assay [6], 16 µg/mL (≈ 40.5 µM). Further, the MIC in assay [7] was determined as 8 µg/mL (≈ 20.2 µM); in assay [8], 16 µg/mL (≈ 40.5 µM); in assay [9], 16 µg/mL (≈ 40.5 µM); in assay [10], 16 µg/mL (≈ 40.5 µM); in [11], 16 µg/mL (≈ 40.5 µM); in [12], 32 µg/mL (≈ 80.9 µM). The MIC in [13] was determined as 16 µg/mL (≈ 40.5 µM); in assay [14] it was 16 µg/mL (≈ 40.5 µM); in assay [15], 32 µg/mL (≈ 80.9 µM); in [16], 16 µg/mL (≈ 40.5 µM); in assay [17], 32 µg/mL (≈ 80.9 µM); in [18] it was 8 µg/mL (≈ 20.2 µM). Besides, the MIC in assay [19] is 32 µg/mL (≈ 80.9 µM); in [20], 16 µg/mL (≈ 40.5 µM); in assay [21] it was 32 µg/mL (≈ 80.9 µM); in [22], 16 µg/mL (≈ 40.5 µM); in assay [23], 8 µg/mL (≈ 20.2 µM); in assay [24], > 32 µg/mL. Besides, the MIC in [25] came out at 16 µg/mL (≈ 40.5 µM); in assay [26] it was 8 µg/mL (≈ 20.2 µM); in [27], 8 µg/mL (≈ 20.2 µM); in assay [28], 32 µg/mL (≈ 80.9 µM); in assay [29], 32 µg/mL (≈ 80.9 µM); in [30], 16 µg/mL (≈ 40.5 µM). Besides, the MIC in assay [31] is 16 µg/mL (≈ 40.5 µM); in [32], > 32 µg/mL.
Regarding `C[Si]1(C)CCN(c2ccc(N3C[C@H](CN)OC3=O)cc2F)CC1` [NDS-10057, (S)-5-(aminomethyl)-3-(4-(4,4-dimethyl-1,4-azasilinan-1-yl)-3-fluorophenyl)oxazolidin-2-one], the MIC in assay [1] is > 32 µg/mL; in assay [2] it was > 32 µg/mL; in assay [3], > 32 µg/mL; in [4], 32 µg/mL (≈ 94.8 µM); in assay [5] (setting [33]), 25 µg/mL (≈ 74.1 µM); in assay [6] it was > 32 µg/mL. For the same compound, the MIC was > 32 µg/mL in assay [7]; 32 µg/mL (≈ 94.8 µM) in assay [8]; > 32 µg/mL in assay [9]; > 32 µg/mL in [10]; > 32 µg/mL in assay [11]; > 32 µg/mL in assay [12]. The MIC is > 32 µg/mL in assay [13]; > 32 µg/mL in assay [14]; > 32 µg/mL in assay [15]; 32 µg/mL (≈ 94.8 µM) in assay [16]; 16 µg/mL (≈ 47.4 µM) in [17]; 32 µg/mL (≈ 94.8 µM) in [18]. Moreover, the MIC in assay [19] was > 32 µg/mL; in assay [20], > 32 µg/mL; in assay [21], 32 µg/mL (≈ 94.8 µM); in assay [22] it was 32 µg/mL (≈ 94.8 µM); in [23], > 32 µg/mL; in assay [24], > 32 µg/mL. Moreover, the MIC in assay [25] was > 32 µg/mL; in assay [26], > 32 µg/mL; in assay [27], 32 µg/mL (≈ 94.8 µM); in assay [28] it was > 32 µg/mL; in [29], > 32 µg/mL; in assay [30], > 32 µg/mL. In addition, the MIC in [31] and in [32] was > 32 µg/mL each time.
`CO[C@H]1/C=C/O[C@@]2(C)Oc3c(C)c(O)c4c(O)c(c(/C=N/N5CCN(C)CC5)c(O)c4c3C2=O)NC(=O)/C(C)=C\C=C\[C@H](C)[C@H](O)[C@@H](C)[C@@H](O)[C@@H](C)[C@H](OC(C)=O)[C@@H]1C` [Rifampicin, reference compound]: in assay [5] (inhibition of Mycobacterium tuberculosis H37Rv growth, 7H9-OADC media, 37° C., visual readout), the MIC was found to be 0.3 µg/mL (≈ 0.365 µM).
For `CC(=O)NC[C@H]1CN(c2cc(F)c(N3CC[Si](C)(c4ccccc4)CC3)c(F)c2)C(=O)O1` [NDS-10068, (S)—N-((3-(3,5-difluoro-4-(4-methyl-4-phenyl-1,4-azasilinan-1-yl)phenyl)-2-oxooxazolidin-5-yl)methyl)acetamide], in [5] (setting [33]), the MIC is > 100 µg/mL.
As for `CC(=O)NC[C@H]1CN(c2ccc(N3CCOCC3)c(F)c2)C(=O)O1` [Linezolid, (S)—N-({3-[3-fluoro-4-(morpholin-4-yl)phenyl]-2-oxo-1,3-oxazolidin-5-yl}methyl)acetamide, reference compound], the MIC in assay [1] came to 2 µg/mL (≈ 5.93 µM); in assay [2], 2 µg/mL (≈ 5.93 µM); in [3], 2 µg/mL (≈ 5.93 µM); in assay [4] it was 1 µg/mL (≈ 2.96 µM); in [6] it was 1 µg/mL (≈ 2.96 µM); in assay [7], 0.5 µg/mL (≈ 1.48 µM). Further, the MIC is 2 µg/mL (≈ 5.93 µM) in assay [8]; 2 µg/mL (≈ 5.93 µM) in assay [9]; 1 µg/mL (≈ 2.96 µM) in assay [10]; 2 µg/mL (≈ 5.93 µM) in assay [11]; 2 µg/mL (≈ 5.93 µM) in assay [12]; 1 µg/mL (≈ 2.96 µM) in [13]. Further, the MIC in assay [14] came to 2 µg/mL (≈ 5.93 µM); in assay [15] it was 2 µg/mL (≈ 5.93 µM); in assay [16], 4 µg/mL (≈ 11.9 µM); in assay [17], 1 µg/mL (≈ 2.96 µM); in assay [18] it was 1 µg/mL (≈ 2.96 µM); in [19], 2 µg/mL (≈ 5.93 µM). Moreover, the MIC in assay [20] is 2 µg/mL (≈ 5.93 µM); in assay [21] it was 2 µg/mL (≈ 5.93 µM); in [22], 2 µg/mL (≈ 5.93 µM); in assay [23], 1 µg/mL (≈ 2.96 µM); in assay [24], 4 µg/mL (≈ 11.9 µM); in assay [25] it was 2 µg/mL (≈ 5.93 µM). The MIC in [26] came out at 2 µg/mL (≈ 5.93 µM); in assay [27], 1 µg/mL (≈ 2.96 µM); in assay [28], 2 µg/mL (≈ 5.93 µM); in assay [29] it was 2 µg/mL (≈ 5.93 µM); in assay [30], 2 µg/mL (≈ 5.93 µM); in assay [31], 2 µg/mL (≈ 5.93 µM).
In the case of `CC(C)(C)OC(=O)NC[C@H]1CN(c2cc(F)c(N3CC[Si](C)(C)CC3)c(F)c2)C(=O)O1` [NDS-10031, (S)-tert-butyl((3-(4-(4,4-dimethyl-1,4-azasilinan-1-yl)-3,5-difluorophenyl)-2-oxooxazolidin-5-yl)methyl)carbamate], the MIC in assay [1], in assay [2], in [3], in assay [4], in [7] and in assay [8] was > 16 µg/mL in each case. In addition, the MIC in assay [9], in [10], in [11], in [12], in [13] and in [15] was > 16 µg/mL in each case. Also, the MIC in assay [17] is > 16 µg/mL; in assay [18] it was > 32 µg/mL; in assay [19] it was > 16 µg/mL; in [21], > 16 µg/mL; in assay [25] it was > 16 µg/mL; in assay [26] it was > 16 µg/mL. Further, the MIC in assay [27], in [28], in assay [29], in [30], in [31] and in assay [32] was > 16 µg/mL each time.
Consider `COC(=S)NC[C@H]1CN(c2cc(F)c(N3CC[Si](C)(C)CC3)c(F)c2)C(=O)O1` [NDS-10055, (S)—O-methyl(3-(4-(4,4-dimethyl-1,4-azasilinan-1-yl)-3,5-difluorophenyl)-2-oxooxazolidin-5-yl)methylcarbamothioate], for which the MIC in [5] (setting [33]) was > 100 µg/mL.
The same measure, in the same setting: for `CCC(=O)NC[C@H]1CN(c2cc(F)c(N3CC[Si](C)(c4ccccc4)CC3)c(F)c2)C(=O)O1` [NDS-10069, (S)—N-((3-(3,5-difluoro-4-(4-methyl-4-phenyl-1,4-azasilinan-1-yl)phenyl)-2-oxooxazolidin-5-yl)methyl)propionamide] the value was 50 µg/mL (≈ 106 µM).
